How the values were obtained:
[1] = tested on: Mia PACA-2 cells; test: Intracellular ROS (H2O2) by flow cytometry of DCF-labeled cells; assay type: cell-based, human; details: Mia PACA-2, 72 hours, serum or IGF-1; trans-resveratrol 100 μM, genistein 100 μM, DPI 15 μM, tiron 10 mM
Protocol: To determine the effect of serum in cancer cells, the following assay was conducted. Mia PACA-2 pancreatic cancer cells were cultured for 72 hours in the absence and presence of serum (15% FBS) or 100 ng/ml insulin growth factor-1 (IGF-1). Dichloroflyorescein diocetate (DCF-DA) was used to label the cells. Intracellular H2O2 was measured by flow cytometry of DCF-labeled cells. Intracellular ROS was measured using oxidation-sensitive cell-permeable fluorescent probe, dichlorofluorescein diacetate (DCF-DA) to measure H2O2. See Royall J A, and Ischiropoulos H. (1993) Arch. Biochem. Biophys. 302:348-355. To measure ROS, cells were collected after incubation, washed with PBS, and incubated for 15 minutes with […] DCF-DA. Samples were analyzed by flow cytometry. The amount of DCF-DA fluorescence correlated with the amount of ROS in the cells To determine the effects of serum, IGF-1, polyphenols and inhibitors of ROS on ROS production in cancer cells, the following assay was conducted. Mia PACA-2 cells were cultured for 72 hours in the presence of serum or IGF-1 with or without antioxidants, intracellular superoxide scavenger tiron (10 mM) or NADPH oxidase inhibitor, diphenylene iodonium (DPI, 15 μM) and trans-resveratrol (100 μM), genistein (100 μM), or a combination of polyphenolic compounds and antioxidants. Intracellular H2O2 was measured by flow cytometry of DCF-labeled cells. Mia PACA-2 cells and BSp73AS cells were cultured in Dulbecco's Modified Eagle's Medium supplemented with 10% heat inactivated FBS, penicillin G (100 U/ml) and streptomycin ([…]) in a humidified atmosphere comprising 5% (v/v) CO2. When the cells were 90% confluent they were detached, washed with alternating centrifugation and resuspension, plated and incubated in the same media with or without FBS or IGF-1 and with or without a given polyphenolic compound and with or without a given ROS inhibitor.

[2] = tested on: PARP; test: PARP proteolysis (Western blot); assay type: cell-based, rat; details: BSp73AS, 6 hours, 100 μM
Protocol: BSp73AS cells were cultured for 6 hours and Mia PACA-2 cells were cultured for 24 hours in the presence or absence of 100 μM of each rutin, quercetin or trans-resveratrol and with or without 50 μM of each […]. The cells were washed twice with PBS and lysed by incubating for 20 minutes at 4° C. in lysis buffer comprising 0.15 M NaCl, 50 mM Tris (pH 7.2), 1% deoxycholic acid (wt/vol), 1% Triton X-100 (wt/vol), 0.1% […] (wt/vol) and 1 mM PMSF, as well as 5 μg/ml each of protease inhibitors, pepstatin, leupeptin, chymostatin, antipain, and aprotinin. Then the cell lysates were centrifuged for 20 minutes at 15,000 g at 4° C. The supernatants were separated by 4-20% SDS-PAGE for 2 hours at 120 V using precast Tris-glycine gels and a Mini-Cell gel apparatus (Novex, San Diego, Calif.). Separated proteins were electrophoretically transferred to a nitrocellulose membrane for 2 hours at 30 V using a Novex Blot Module (Novex, San Diego, Calif.). Nonspecific binding was blocked by 1 hour incubation of nitrocellulose membranes in 5% (wt/vol) nonfat dry milk in Tris-buffered saline (TBS; pH 7.5). Blots were then incubated overnight at 4° C. with rabbit polyclonal antibody against poly (ADP-ribose) polymerase (PARP) (Santa Cruz Biotechnology, Santa Cruz, Calif.) (1;3,000) in an antibody buffer comprising (1% (wt/vol) non-fat dry milk in TTBS (0.05% vol/vol) Tween-20 in TBS), washed 3 times with TTBS and finally incubated for 1 hour with a peroxidase-labeled secondary antibody in the antibody buffer. Blots were developed for visualization using ECL detection kit. To test for equal protein loading, the blots were stripped and re-probed with an antibody against tubulin. When processing of a protein was measured, a decrease in unprocessed full-length form was measured concomitantly with the increase in the cleaved, active form. The experiment was repeated 3 times with similar results.

[3] = tested on: NF-κB; test: NF-κB DNA binding activity (EMSA); assay type: cell-based, rat; details: BSp73AS, 6 hours; polyphenols 100 μM, MG-132 20 μM
Protocol: In order to determine the role of activated NF-κB in the regulation of apoptosis caused by the polyphenolic compound, the following assay was conducted. BSp73AS cells were cultured for 6 hours and Mia PACA-2 cells were cultured in the absence of serum or growth factors for 24 hours in the absence (controls) or presence of rutin, quercetin, trans-resveratrol, or genistein, each at 100 μM and 20 μM proteosome inhibitor MG-132. Nuclear proteins were isolated and analyzed for NF-κB DNA binding activity with electrophoretic mobility shift assay (EMSA). Specifically, aliquots of nuclear extracts with equal amount of protein, about 2 to about 10 μg, were mixed in 20 μl reactions with a buffer comprising 10 mM HEPES (pH 7.6), 50 mM KCl, 0.1 mM EDTA, 1 mM DTT, 10% (vol/vol) glycerol and 3 μg poly[d (I-C)]. After aliquots were equilibrated on ice for 5 minutes, binding reactions were stared by addition of 20-60,000 counts/min (20 fM) of ^32P-labeled DNA probes and allowed to proceed for 25-30 minutes at room temperature or up to 1 hour on ice. The oligonucleotide probe containing the κB binding motif (underlined) was annealed to the complementary oligonucleotide with a 5′-G overhang and end-labeled using Klenow DNA polymerase I. The samples were electrophoresed at room temperature in 0.5×TBE buffer (1×TBE 89 mM Tris base, 89 mM boric acid and 2 mM EDTA) on nondenaturing 4.5% polyacrylamide gel at 200 V. Gels were dried and directly analyzed in the PhosphorImager (Molecular Dynamics, Sunnyvale, Calif.). The experiment was repeated twice.

| Compound | ROS production (intracellular H2O2, DCF fluorescence) [1] | PARP cleavage [2] | NF-κB activation (DNA binding) [3] |
| --- | --- | --- | --- |
| O=c1c(-c2ccc(O)cc2)coc2cc(O)cc(O)c12 [genistein] | small increase in ROS production | – | – |
| O=c1c(O)c(-c2ccc(O)c(O)c2)oc2cc(O)cc(O)c12 [quercetin] | – | cleaved to its activated form | inhibit NF-κB activation |
| Oc1ccc(/C=C/c2cc(O)cc(O)c2)cc1 [trans-resveratrol] | small increase in ROS production | cleaved to its activated form | inhibit NF-κB activation |

Reference: patent US6953786B2, “Compositions comprising plant-derived polyphenolic compounds and inhibitors of reactive oxygen species and methods of using thereof” (The Regents of the University of California, priority 2002, dated 2005)
